Assay results from patent US20210214358A1, “CDK4/6 INHIBITOR AND PHARMACEUTICALLY ACCEPTABLE SALT AND POLYMORPH THEREOF AND USE THEREOF” (SHANGHAI HAIYAN PHARMACEUTICAL TECHNOLOGY CO., LTD., priority 2018, published 2021).

What was measured:
CDK2 = target: T1, CDK2 (Homo sapiens, UniProt P24941); assay: Kinase test in vitro (LANCE Ultra, Ulight-4EBP1); type: biochemical
T1 construct: purchased Invitrogen
Description: (§1) Recombinant CDK1, CCNB1 and CDK9, and CCNT were purchased from BPS; CDK2, CCNA1, CDK4, CCND1 and CDK6, and CCND1 were purchased from Invitrogen; CDK4, CycD3 and CDK6, and CycD3 were purchased from Carna. Adenosine triphosphate (ATP) was purchased from Life tech. Substrate Ulight-4EBP1 and the corresponding detection antibody were purchased from Perkinelmer. LANCE Ultra system from Perkinelmer is used as the detection system.
(§2) In the kinase test, a compound to be tested was 1:3 diluted for 8 gradient points and added into a reaction plate, and then an appropriate amount of recombinase was added. A buffer [50 mM HEPES pH7.5, 10 mM MgCl2, 3 mM MnCl2, 1 mM EGTA, 0.01% Tween-20, 1 mM TCEP] containing ATP, Ulight-4EBP1 premix at a predetermined concentration was subsequently added, and the kinase reaction began at room temperature. A test solution pre-mixed with 10 mM EDTA and detection antibody was added after a suitable reaction time, and then the fluorescence value was read on Tecan infinite pro after reacting for 1 hour at room temperature. The IC50 was calculated using a four-factor model fitting in a XLfit software.

CDK1 = target: T2, CDK1 (Homo sapiens, UniProt P06493); assay: Kinase test in vitro (LANCE Ultra, Ulight-4EBP1); type: biochemical
T2 construct: purchased BPS
Description: as §1, §2

CDK6 = target: T3, CDK6 (Homo sapiens, UniProt Q00534); assay: Kinase test in vitro (LANCE Ultra, Ulight-4EBP1); type: biochemical
T3 construct: purchased Invitrogen or Carna
Description: as §1, §2

CDK4 = target: T4, CDK4 (Homo sapiens, UniProt P11802); assay: Kinase test in vitro (LANCE Ultra, Ulight-4EBP1); type: biochemical
T4 construct: purchased Invitrogen or Carna
Description: as §1, §2

[1] = Pharmacokinetics and brain distribution test; type: in vivo, SD rats; conditions: rats, oral 10 mg/kg
Method: Test Animals: healthy adult male SD rats (weight 210-230 g per rat, 12 rats, fasted overnight, fed 4 hours after dosing), provided by SLAC company; preparation of oral solution: 40.14 mg of compound P-53 was weighed and added into a clean tube, and 36.479 mL of 0.5% HPC-H (TCI, E6ZQA) in acetate buffer (PH4.5) was added into the tube. The mixture was then vortexed for 1-2 min. Then the solution was sonicated for 20-25 min and stirred for 20-25 min.
SD rats were administered via intragastric administration (10 mg/kg (10 mL/kg)); samples were collected at 0.5, 1, 2 and 4 hr after dosing (total 4 timepoints), wherein only plasma samples were collected continuously, and brain tissue and cerebrospinal fluid were collected at each time point.
Blood collection: The animal was restrained manually and at each time point collected approximately 150 μL blood via tail vein into a K2EDTA-containing tube. Within 15 minutes, the blood sample was put on wet ice and centrifuged to obtain plasma sample (2000 g, 5 min under 4° C.). […]
Analytical method: the plasma and brain of SD rats were used as matrix, and Glipizide was used as an internal standard. […] The drug concentration was determined by LC-MS/MS method, the pharmacokinetic parameters in the plasma, brain tissue, and cerebrospinal fluid of rats are shown in Table 8: […]

T2 sequence (P06493 whole entry): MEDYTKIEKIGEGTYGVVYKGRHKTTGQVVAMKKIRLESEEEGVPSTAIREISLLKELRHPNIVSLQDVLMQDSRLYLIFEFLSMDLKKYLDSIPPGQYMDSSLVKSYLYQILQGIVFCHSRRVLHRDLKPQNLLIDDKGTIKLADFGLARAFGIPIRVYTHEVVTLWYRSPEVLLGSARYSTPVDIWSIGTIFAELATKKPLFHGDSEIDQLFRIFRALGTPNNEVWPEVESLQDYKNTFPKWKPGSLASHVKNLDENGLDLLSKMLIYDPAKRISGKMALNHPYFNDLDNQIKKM
T2 sequence (P14635 whole entry partner): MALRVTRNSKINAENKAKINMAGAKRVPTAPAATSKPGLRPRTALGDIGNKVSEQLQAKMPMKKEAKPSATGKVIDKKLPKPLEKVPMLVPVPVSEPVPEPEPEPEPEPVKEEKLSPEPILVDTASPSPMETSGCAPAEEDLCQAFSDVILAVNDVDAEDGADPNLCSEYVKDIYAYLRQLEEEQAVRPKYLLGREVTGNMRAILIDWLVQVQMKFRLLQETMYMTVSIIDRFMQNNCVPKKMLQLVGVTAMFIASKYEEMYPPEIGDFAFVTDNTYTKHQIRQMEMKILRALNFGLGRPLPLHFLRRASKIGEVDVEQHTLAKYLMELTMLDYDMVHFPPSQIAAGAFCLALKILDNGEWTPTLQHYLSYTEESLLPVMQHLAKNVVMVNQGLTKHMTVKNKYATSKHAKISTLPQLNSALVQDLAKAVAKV
T4 sequence (P11802 whole entry): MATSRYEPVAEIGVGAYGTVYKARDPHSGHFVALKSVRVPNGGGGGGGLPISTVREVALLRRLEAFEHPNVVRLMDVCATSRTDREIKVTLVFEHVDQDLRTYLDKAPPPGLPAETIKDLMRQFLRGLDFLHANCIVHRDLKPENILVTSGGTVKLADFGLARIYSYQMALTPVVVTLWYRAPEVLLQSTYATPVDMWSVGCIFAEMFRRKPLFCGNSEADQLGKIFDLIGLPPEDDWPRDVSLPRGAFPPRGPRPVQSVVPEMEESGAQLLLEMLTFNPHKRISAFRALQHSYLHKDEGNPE
T4 sequence (P24385 whole entry partner): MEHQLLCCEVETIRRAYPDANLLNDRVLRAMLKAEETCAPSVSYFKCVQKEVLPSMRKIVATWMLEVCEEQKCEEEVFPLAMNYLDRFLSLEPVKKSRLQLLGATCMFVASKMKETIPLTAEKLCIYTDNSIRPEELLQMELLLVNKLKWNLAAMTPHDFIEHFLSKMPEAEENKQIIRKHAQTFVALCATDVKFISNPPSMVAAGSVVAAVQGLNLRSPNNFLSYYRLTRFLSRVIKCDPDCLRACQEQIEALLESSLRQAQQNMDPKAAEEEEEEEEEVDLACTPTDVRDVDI
T3 sequence (Q00534 whole entry): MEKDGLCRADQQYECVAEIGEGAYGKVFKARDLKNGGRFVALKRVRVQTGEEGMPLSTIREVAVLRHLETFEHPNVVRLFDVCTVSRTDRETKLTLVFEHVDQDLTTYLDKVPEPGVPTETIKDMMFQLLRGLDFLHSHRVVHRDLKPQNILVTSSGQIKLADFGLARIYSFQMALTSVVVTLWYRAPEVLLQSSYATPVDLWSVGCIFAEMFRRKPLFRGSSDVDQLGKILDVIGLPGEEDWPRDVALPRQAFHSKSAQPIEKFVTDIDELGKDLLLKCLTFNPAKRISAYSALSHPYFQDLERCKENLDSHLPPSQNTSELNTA
T3 sequence (P24385 whole entry partner): as the sequence (P24385 whole entry partner) above

IC50 (CDK2): 8.75 µM
inhibitory activity against CDK2 (in words) (CDK2): weak inhibitory activity
IC50 (CDK1): 6.09 µM
inhibitory activity against CDK1 (in words) (CDK1): weak inhibitory activity
IC50 (CDK6): 0.057 µM
inhibitory activity against CDK6 (in words) (CDK6): strong inhibitory activity
IC50 (CDK4): 0.01 µM
inhibitory activity against CDK4 (in words) (CDK4): strong inhibitory activity
brain permeability (in words) [1]: can cross the blood-brain barrier
Structure (SMILES): CCN1CCN(Cc2ccc(Nc3ncc4c(n3)-c3c(nc(C5CC5)n3C(C)C)C4)nc2)CC1 [Free base of compound of formula X, 2-cyclopropyl-N-(5-((4-ethylpiperazin-1-yl)methyl)pyridin-2-yl)-3-isopropyl-3,8-dihydroimidazo[4′,5′,4,5]cyclopenta[1,2-d]pyrimidin-5-amine]
